Some test systems named below: SR; T47D; NCI/ADR-RES; EKVX; OVCAR-5; M14; NCI-H23; SF-295; SK-MEL-5; UACC-257; HOP-92; MOLT-4; COLO 205; K562; DU-145; CCRF-CEM; A498; SNB-75; HOP-62; SF-539.
Assay in all cases: NCI-60 cell line screen, 48 h

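How tested: cells in 96-well plates exposed to compound for 48 hours at five concentrations. GI50: concentration for 50% inhibition of growth.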 The source made the active and inactive calls. Cut-off read from the data, not from the text of the source: active = GI50 up to about 1.1 µM and inactive = higher.

As to `COc1ccc2[nH]c(C(O)(Cc3cccnc3)Cc3cccnc3)cc2c1`, the GI50 in the experiment with SR, with T47D, in the experiment on NCI/ADR-RES, with EKVX, in the experiment on OVCAR-5 and with M14 was > 100 µM (inactive) throughout. The GI50 in the experiment with NCI-H23, with SF-295, with SK-MEL-5, with UACC-257, with HOP-92 and in the experiment with MOLT-4 was > 100 µM (inactive) throughout. Moreover, the GI50 in the experiment with COLO 205, with K562, in the experiment with DU-145, with CCRF-CEM, in the experiment with A498 and with SNB-75 was > 100 µM (inactive) throughout. Besides, the GI50 in the experiment with HOP-62 is > 100 µM (inactive).
`COc1ccc2o/c(=N/c3ccccc3)c(C(N)=O)cc2c1`: the GI50 in the experiment with SR is > 100 µM (inactive); in the experiment on T47D, > 100 µM (inactive); with NCI/ADR-RES, > 69.8 µM (inactive); in the experiment with EKVX, > 25.5 µM (inactive); in the experiment on OVCAR-5 it was > 100 µM (inactive); with M14 it was > 100 µM (inactive). Besides, the GI50 in the experiment with NCI-H23 is > 58.1 µM (inactive); with SF-295, 74 µM (inactive); with SK-MEL-5 it was > 100 µM (inactive); with UACC-257 it was > 100 µM (inactive); in the experiment with HOP-92, > 50.9 µM (inactive); in the experiment with MOLT-4, > 100 µM (inactive). For the same compound, the GI50 with COLO 205 was > 100 µM (inactive); in the experiment with K562, > 100 µM (inactive); in the experiment on DU-145 it was > 100 µM (inactive); with SF-539, > 75.3 µM (inactive); in the experiment on CCRF-CEM it was > 100 µM (inactive); with SNB-75, 53.7 µM (inactive). In addition, the GI50 in the experiment with HOP-62 was 32.2 µM (inactive).
Take `Oc1c(Cl)cc2cc1-c1cc(cc(Cl)c1O)CCc1c(cc(Cl)c(O)c1Cl)-c1cc(Cl)c(c(Cl)c1O)/C=C\2`: the GI50 is 3.91 µM (inactive) in the experiment on SR; 8.41 µM (inactive) in the experiment with T47D; 13.7 µM (inactive) in the experiment on NCI/ADR-RES; 10.8 µM (inactive) in the experiment with OVCAR-5; 7.23 µM (inactive) in the experiment on M14; 13.3 µM (inactive) in the experiment on NCI-H23. Further, the GI50 with SK-MEL-5 is 8.17 µM (inactive); with UACC-257, 13.6 µM (inactive); in the experiment with HOP-92, 16.8 µM (inactive); with MOLT-4 it was 30.2 µM (inactive); in the experiment on COLO 205, 8.24 µM (inactive); in the experiment on K562, > 50 µM (inactive). The GI50 was 9.18 µM (inactive) in the experiment with DU-145; 3.56 µM (inactive) in the experiment with CCRF-CEM; 14.3 µM (inactive) with A498; 9.02 µM (inactive) in the experiment with SNB-75; 7.74 µM (inactive) with HOP-62.
Take `COc1cc2c(cc1OCCCC(=O)Nc1cc(C(=O)NCCCN(C)C)n(C)n1)N=CC1CCCN1C2=O` (stereo not given): the GI50 in the experiment with SR was 0.213 µM (active); in the experiment with T47D it was 9.66 µM (inactive); in the experiment with NCI/ADR-RES, > 33.5 µM (inactive); with EKVX, > 47.4 µM (inactive); in the experiment on OVCAR-5, 10.5 µM (inactive); in the experiment with M14, 8.34 µM (inactive). Also, the GI50 is 11.5 µM (inactive) with NCI-H23; > 100 µM (inactive) with SF-295; 5.68 µM (inactive) in the experiment with SK-MEL-5; 7.45 µM (inactive) in the experiment with UACC-257; 6.56 µM (inactive) in the experiment with HOP-92; 0.347 µM (active) in the experiment with MOLT-4. The GI50 in the experiment with COLO 205 is 8.93 µM (inactive); in the experiment with K562, 0.123 µM (active); with DU-145, 12.9 µM (inactive); with SF-539 it was 9.04 µM (inactive); in the experiment on A498, 2.82 µM (inactive); with SNB-75 it was 7.85 µM (inactive). In addition, the GI50 with HOP-62 is > 20.8 µM (inactive).
Turning to `COC(CO[Si](C)(C)N[Si](C)(C)OCC(OC)c1ccccc1)c1ccccc1` (stereo not given), the GI50 in the experiment with SR, with T47D, with NCI/ADR-RES, in the experiment with EKVX, in the experiment with OVCAR-5 and in the experiment with M14 was > 100 µM (inactive) each time. Besides, the GI50 in the experiment with NCI-H23, with SF-295, in the experiment on SK-MEL-5, in the experiment with UACC-257, in the experiment on HOP-92 and with MOLT-4 was > 100 µM (inactive) throughout. Moreover, the GI50 in the experiment on COLO 205, with K562, with DU-145, in the experiment with CCRF-CEM, with A498 and in the experiment with SNB-75 was > 100 µM (inactive) throughout. Besides, the GI50 in the experiment on HOP-62 is > 100 µM (inactive).
`O=c1oc2nc(-c3ccccc3)cc(C(F)(F)F)c2n1Cc1ccccc1`: the GI50 with SR is 0.454 µM (active); in the experiment on T47D it was 3.24 µM (inactive); with NCI/ADR-RES, 3.42 µM (inactive); with EKVX, 7.03 µM (inactive); with OVCAR-5 it was > 100 µM (inactive); in the experiment on M14, 4.33 µM (inactive). The GI50 with NCI-H23 was 6.14 µM (inactive); with SF-295, 5.12 µM (inactive); with SK-MEL-5, 5.42 µM (inactive); with UACC-257, > 37.8 µM (inactive); with HOP-92, 85.5 µM (inactive); in the experiment with MOLT-4 it was 4.21 µM (inactive). Moreover, the GI50 is 7.82 µM (inactive) in the experiment on COLO 205; 1.53 µM (inactive) in the experiment on K562; 11.3 µM (inactive) in the experiment on DU-145; 7.5 µM (inactive) in the experiment on SF-539; 7.21 µM (inactive) in the experiment with CCRF-CEM; 2.07 µM (inactive) in the experiment with A498. The GI50 in the experiment on HOP-62 was 12.2 µM (inactive).
On to `CCCCc1c2c(c(C)c3c1C(=O)OC3)Oc1ccccc1O2`, for which the GI50 in the experiment with SR was 0.186 µM (active); in the experiment with T47D, 5.11 µM (inactive); in the experiment with NCI/ADR-RES, 0.382 µM (active); with OVCAR-5 it was > 27.5 µM (inactive); with M14, 1.22 µM (inactive); with NCI-H23 it was 2.9 µM (inactive). Moreover, the GI50 with SF-295 is 0.467 µM (active); with SK-MEL-5 it was 0.478 µM (active); in the experiment with UACC-257, 0.428 µM (active); with HOP-92 it was 10.2 µM (inactive); in the experiment on MOLT-4, 0.973 µM (active); with COLO 205, 0.855 µM (active). In addition, the GI50 in the experiment on K562 is 0.379 µM (active); in the experiment on DU-145, 2.51 µM (inactive); in the experiment on SF-539, 0.608 µM (active); with CCRF-CEM, 0.695 µM (active); with A498, 1.25 µM (inactive); in the experiment with SNB-75, 0.562 µM (active). Besides, the GI50 in the experiment with HOP-62 was 1.23 µM (inactive).
In the case of `O=c1c(O)c(-c2cc(O)c(O)c(O)c2)oc2cc(O)cc(O)c12` [MYRICETIN], the GI50 in the experiment with SR is 40.7 µM (inactive); in the experiment with T47D it was > 100 µM (inactive); in the experiment with NCI/ADR-RES, 22.4 µM (inactive); in the experiment on OVCAR-5, 84.1 µM (inactive); in the experiment with M14 it was 32.1 µM (inactive); in the experiment on NCI-H23, 18.4 µM (inactive). The GI50 was 20.3 µM (inactive) in the experiment with SF-295; 31.5 µM (inactive) in the experiment with SK-MEL-5; 29.2 µM (inactive) with UACC-257; 46.7 µM (inactive) in the experiment on HOP-92; 54.6 µM (inactive) in the experiment with MOLT-4; 65.9 µM (inactive) with COLO 205. In addition, the GI50 in the experiment with K562 is 35.6 µM (inactive); with DU-145 it was > 100 µM (inactive); with SF-539, > 100 µM (inactive); in the experiment with CCRF-CEM it was 64.6 µM (inactive); with A498 it was > 100 µM (inactive); in the experiment with SNB-75 it was 64.4 µM (inactive). In the experiment on HOP-62, the GI50 is 20.3 µM (inactive).

(Values after ChEMBL document CHEMBL1201862, “PubChem BioAssay data set” (2004).)
